Assay [1] addresses T1, purified human recombinant Top 1 (Homo sapiens, UniProt P11387).
T1 sequence (P11387 1-765): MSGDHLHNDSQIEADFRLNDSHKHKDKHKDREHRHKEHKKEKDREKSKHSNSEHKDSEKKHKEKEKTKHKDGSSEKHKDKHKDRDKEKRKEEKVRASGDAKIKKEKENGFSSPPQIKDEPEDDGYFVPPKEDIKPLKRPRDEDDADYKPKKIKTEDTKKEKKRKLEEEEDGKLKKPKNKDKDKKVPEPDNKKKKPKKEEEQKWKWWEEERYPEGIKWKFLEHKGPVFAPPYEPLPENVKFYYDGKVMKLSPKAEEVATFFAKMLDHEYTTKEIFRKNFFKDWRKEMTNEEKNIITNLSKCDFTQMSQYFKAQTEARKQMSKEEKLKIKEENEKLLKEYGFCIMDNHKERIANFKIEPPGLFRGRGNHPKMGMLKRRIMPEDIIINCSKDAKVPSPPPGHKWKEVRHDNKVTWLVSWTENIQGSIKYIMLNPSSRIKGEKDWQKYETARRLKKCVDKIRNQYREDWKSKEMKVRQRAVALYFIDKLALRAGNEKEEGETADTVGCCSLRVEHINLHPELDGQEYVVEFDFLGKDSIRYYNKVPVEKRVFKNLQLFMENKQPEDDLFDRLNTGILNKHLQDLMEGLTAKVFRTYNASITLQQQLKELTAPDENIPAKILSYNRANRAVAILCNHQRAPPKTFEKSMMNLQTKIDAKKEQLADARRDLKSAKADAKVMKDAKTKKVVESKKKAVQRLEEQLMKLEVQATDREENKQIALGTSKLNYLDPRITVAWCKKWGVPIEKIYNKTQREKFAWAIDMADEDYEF
The experiment in a line: Top1-catalysed cleavage assay. It counts as biochemical. As to conditions: 1, 10, 100 and 1000 μM. As to the method: The influence of SDD has been studied at various concentrations on Top 1 cleavage activity in comparison with Camptothecin.
The method consists in an incubation of 3′-labeled oligonucleotides with enzyme Top1, or Top 1+CPT or Top 1-SDD.
3′-end labelling of the scissile strand was performed as described previously in the publication: Conversion of topoisomerase I cleavage complexes on the leading strand of ribosomal DNA into 5′-phosphorylated DNA double-strand breaks by replication runoff. Pommier, Y.; Jenkins, J.; Kohlhagen, G.; and Leteurtre, F.; Mutat. Res. (1995), 337, 135-145.
Thus, 10 pmol of […] was incubated in labelling buffer (100 mM potassium cacodylate, pH 7.2, 2 mM CaCl2, 200 μM DTT) for 1 h at 37° C.
The reaction mixture was passed through a G-25 Sephadex spin column by centrifugation at 1000 g for 5 min to remove the excess of unincorporated nucleotide.
The 3′-labeled oligonucleotide was mixed with the same amount of unlabeled complementary strand in annealing buffer (i.e. 10 mM Tris-HCl, pH 7.8, […]) and annealed by heating the reaction mixture for 5 min at 95° C. followed by slow cool down at room temperature. […]
Imaging and quantification of the cleavage products were performed using a Typhoon Phosphorimager (Amersham Biosciences) as described in Inhibition of Topoisomerase I cleavage activity by thiol-reactive compounds. […]

Assay [2] concerns HCT-15. The experiment in a line: Cell cycle arrest, propidium iodide flow cytometry, HCT-15. It counts as cell-based, human. As to the method: 10^6 Cells of A549, HCT-15 and MCF-7 cell lines have been seeded in Petri dishes with RPMI-1640 medium. 24 h later, SDD has been dissolved in water at a concentration of 20 μM and was directly added to the culture medium. Contact was maintained for 72 h. Then, cells have been detached by trypsinization, collected and rinsed by PBS and counted on hemocytometer. Cells were centrifuged for 5 min at 1500 rpm, then resuspended in a defined volume of PBS to obtain 2.5×10^6 cell/mL. 100 μL of cell suspension was digested to nuclei by trypsin for 10 min. Then, a solution containing trypsin inhibitor and RNAse was added to cell suspension and left for 10 min. Finally, cells were stained by propidium iodide and were analysed by flow-cytometry apparatus. Distribution of cells among the different phases of the cycle was determined by the procedure disclosed in: A detergent-trypsin method for preparation of nuclei for flow cytometric DNA analysis. Vindelov, L.; Christensen, I.; Nissen, N.; Cytometry (1983), 3, 323-327.
• G0G1: cell in the phase of GOG1 • G2M: cells in the phase of G2M • S: cells in the phase of DNA synthesis • Sub G1: apoptotic cells • SUP G2M: diploidic cells

Where [3] appears, read: HCT-15, SDD 20 μM, 72 h, percentage of total cell population.

As for `CCN1C[C@]2(COC)[C@H](O)C[C@H](OC)[C@]34C1[C@H]([C@H](OC)[C@H]23)[C@]1(OC(=O)CCCCCCC(=O)O[C@]23[C@H]5[C@@H](OC(=O)c6ccccc6)[C@](O)(C[C@H]5[C@@]56C7[C@@H]2[C@H](OC)[C@@H]5[C@](COC)(CN7CC)[C@H](O)C[C@@H]6OC)[C@@H](OC)[C@@H]3O)[C@H]2[C@@H](OC(=O)c3ccccc3)[C@](O)(C[C@H]24)[C@@H](OC)[C@@H]1O` [SDD, bis[O-(14-benzoylaconine-8-yl)]-suberate], the “Top 1 inhibitory activity compared with camptothecin” value in assay [1] is given as “no Top 1 inhibitory activity”. In assay [2] (HCT-15, 20 μM), the “accumulation of cells in the G2M and S phases” value is on record as “significant accumulation”; the “numbers of apoptotic cells (Sub G1)” value was “significantly increased”. In assay [2] (HCT-15, SDD 20 μM), the “increase of number of cells arrested at S phase as compared to control” value is “more than 100%” and the “increase of number of cells in the G2M phase as compared to control” value was 75%. In assay [2] (setting [3]), the ALL % is 100%, the G0G1 % is reported as 30.67%, the G2M % is recorded as 15.72% and the S % was 26.35%. Besides, in assay [2] (setting [3]), the “SUP G2M % (diploidic cells)” value was 2.59% and the “SubG1 % (apoptotic cells)” value was 23.65%. For the same molecule, in assay [2] (HCT-15, SDD, survival cells), the “Percentage of survival cells, G0G1 %” value is 42.16%; the “Percentage of survival cells, G2M %” value is 21.61%; the “Percentage of survival cells, S %” value came out at 36.23%.
